The values that follow come from US9290517B2, “Azabenzimidazole hexahydrofuro[3,2-b]furan derivatives” (Merck Sharp & Dohme Corp., priority 2012, dated 2016).

For assay [1], the target named is recombinant human AMPK complex 7 (containing α2β1γ1) (Homo sapiens (Human), UniProt P54646+Q9Y478). Briefly: in vitro AMPK activation assay (AMPKSAMSF), complex 7. The settings on record: for Emax: 10-point titration, expressed as % maximum AMP activation; for EC50: inflection point reflecting 50% of the maximum activation, table head names AMPK complex 7. Type of assay: biochemical. How it is done: AMPKSAMSF (in vitro AMPK activation assay)
Sequence of recombinant human AMPK complex 7 (containing α2β1γ1) (P54646 whole entry): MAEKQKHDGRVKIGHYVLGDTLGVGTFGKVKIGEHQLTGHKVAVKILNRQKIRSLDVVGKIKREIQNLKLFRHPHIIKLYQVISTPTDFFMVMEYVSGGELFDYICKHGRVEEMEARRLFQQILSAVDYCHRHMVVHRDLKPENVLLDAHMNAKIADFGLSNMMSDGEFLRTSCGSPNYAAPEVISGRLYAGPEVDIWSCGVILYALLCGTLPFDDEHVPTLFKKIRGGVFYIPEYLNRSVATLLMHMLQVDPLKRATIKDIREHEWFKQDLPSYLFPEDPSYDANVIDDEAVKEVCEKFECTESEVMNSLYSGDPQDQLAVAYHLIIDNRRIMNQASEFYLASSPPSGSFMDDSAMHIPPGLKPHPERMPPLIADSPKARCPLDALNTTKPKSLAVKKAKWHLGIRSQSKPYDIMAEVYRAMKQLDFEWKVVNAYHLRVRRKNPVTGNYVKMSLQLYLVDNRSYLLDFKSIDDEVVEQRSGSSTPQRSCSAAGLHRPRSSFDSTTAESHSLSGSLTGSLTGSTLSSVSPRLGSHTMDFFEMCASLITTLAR
Sequence of recombinant human AMPK complex 7 (containing α2β1γ1) (Q9Y478 whole entry): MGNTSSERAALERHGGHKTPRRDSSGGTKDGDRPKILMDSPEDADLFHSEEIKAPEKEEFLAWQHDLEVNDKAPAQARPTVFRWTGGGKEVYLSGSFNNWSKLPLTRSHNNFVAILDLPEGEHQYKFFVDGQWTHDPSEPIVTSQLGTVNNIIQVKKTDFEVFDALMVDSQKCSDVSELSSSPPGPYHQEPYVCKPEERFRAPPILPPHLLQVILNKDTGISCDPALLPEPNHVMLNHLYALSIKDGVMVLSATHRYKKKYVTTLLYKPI
Sequence of recombinant human AMPK complex 7 (containing α2β1γ1) (P54619 whole entry partner): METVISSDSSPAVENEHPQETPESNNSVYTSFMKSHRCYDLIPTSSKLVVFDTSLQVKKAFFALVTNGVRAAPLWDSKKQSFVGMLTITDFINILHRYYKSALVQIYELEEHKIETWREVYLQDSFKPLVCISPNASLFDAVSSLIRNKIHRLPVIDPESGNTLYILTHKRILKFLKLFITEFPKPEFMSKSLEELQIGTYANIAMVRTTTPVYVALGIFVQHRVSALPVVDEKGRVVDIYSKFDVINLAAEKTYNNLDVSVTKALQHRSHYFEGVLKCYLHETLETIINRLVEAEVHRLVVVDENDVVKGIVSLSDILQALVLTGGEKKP
The recombinant human AMPK complex 1 (containing α1β1γ1) or AMPK complex 7 (containing α2β1γ1) was obtained from baculovirus expression system. Recombinant viruses were generated by cotransfection of AMPK/pBacPak9 clones with Baculogold baculovirus DNA (Pharmingen) in spodoptera frugiperda 21 cells according to the manufacturer's instructions. Each round of virus amplification was performed for 5 days in Grace's medium containing 10% serum. Virus that had been subjected to three rounds of amplification was used for all protein production procedures. To express the AMPK complex, sf21 cells were adapted to serum free medium (SF900II, Invitrogen) by sequential dilution from serum containing stocks into SF900II medium and maintained in shaker flasks at 90 rpm at 27° C. The recombinant AMPK enzyme complex was produced by triple infection, one recombinant virus for each of the subunits, in sf21 cells under serum free conditions. Cells were infected in log phase, 1×10^6 cells/ml, at a multiplicity of infection of 5. Cells were harvested by centrifugation at 10,000×g for 15 minutes after 72 hours of infection with viruses. The insect cell pellet from 2 liters of culture was resuspended in 50 ml lysis buffer (20 mM Tris-HCl, 50 mM NaCl, 50 mM NaF, 30 mM Na PPi, 0.25 M sucrose, 10 mM ZnCl2, 2 mM DTT, 0.4 mg/ml digitonin) and subjected to two cycles of freeze-thaw lysis in a dry-ice ethanol bath. Insoluble material was removed by centrifugation at 10,000×g and the supernatant was fractionated with use of polyethylene glycol (PEG). The protein fraction precipitating between 2.5 and 6% PEG was used for further purification using a Blue-Sepharose step (Zhou et al, J. Clin. Invest. 108, 1167-1174, 2001).
The in vitro AMPK activation assay is performed in a volume of 30 μl in a 384-well plate. Enzyme reactions were assembled in the microtiter plate by adding 15 μl of 2× enzyme in assay buffer (20 mM HEPES, pH 7.3, 5 mM MgCl2, 3 mM DTT, 0.01% Brij 35 and CamK Kinase, to activate AMPK) to wells which contained either DMSO or compound. The reaction was initiated with the addition of 15 μl 2× substrate mixture containing 200 μM ATP, and 3.0 μM fluorescently labeled SAMS (5-FAM-HMRSAMSGLHLVKRR-COOH) in assay buffer. After 45-minute incubation at 25° C., the reaction was stopped by the addition of 70 μl stop buffer (100 mM HEPES, pH 7.3, 40 mM EDTA, 0.015% Brij 35). Phosphorylated 5-FAM SAMS product is assessed using a Caliper EZ Reader LabChip microfluidics reader. Product conversion is determined by calculating the peak heights of the substrate and product and reporting the product/(product+substrate) peak ratio. The 10-point titration data were expressed as % maximum AMP activation. The results were plotted using 4 parameter fit and the inflection point reflecting 50% of the maximum activation was reported as the EC50.

Assay [2] deals with ob/ob and db/db mice. The settings on record: following 8 weeks of administration; cited from earlier work.

As to `OCc1ccc(-c2ccc(-c3nc4nc(O[C@@H]5CO[C@H]6[C@@H]5OC[C@H]6O)[nH]c4cc3Cl)cc2)cc1` [Example 146], in assay [1], the Emax (commonly the maximal effect, on the per cent scale that the assay sets) is 354% and the EC50 (as a rule, the concentration giving half of the maximal effect) was found to be 4 nM.

On to `O=C1CC(c2ccc(-c3ccc(-c4nc5nc(O[C@@H]6CO[C@H]7[C@@H]6OC[C@H]7O)[nH]c5cc4Cl)cc3)cc2)CN1` (stereo partly drawn) [Example 149], for which, in assay [1], the Emax is 322% and the EC50 was found to be 2 nM.

Consider `O[C@@H]1CO[C@H]2[C@@H]1OC[C@H]2Oc1nc2nc(-c3ccc(-c4ccc(-n5cc(C(O)(O)C(F)(F)F)nn5)cc4)cc3)c(Cl)cc2[nH]1` [Example 128], for which, in assay [1], the maximal effect (Emax) is 286% and the EC50 amounted to 2 nM.

For the molecule `O=c1ccn(-c2ccc(-c3ccc(-c4nc5nc(O[C@@H]6CO[C@H]7[C@@H]6OC[C@H]7O)[nH]c5cc4Cl)cc3)cc2)[nH]1` [Example 150], in assay [1], the Emax worked out at 322% and the EC50 was 1 nM.

Take `C=CCO[C@@H]1CO[C@H]2[C@@H]1OC[C@H]2Oc1nc2nc(-c3ccc(-c4ccccc4)cc3)c(Cl)cc2[nH]1` [Example 18]: in assay [1], the Emax was 72% and the EC50 worked out at 6 nM.

For the molecule `O[C@@H]1CO[C@H]2[C@@H]1OC[C@H]2Oc1nc2nc(-c3ccc(C#CC4CCNCC4)cc3)c(Cl)cc2[nH]1` [Example 71], in assay [1], the Emax was found to be 420% and the half-maximal effective concentration (EC50) came out at 10 nM.

Regarding `O=C(O)C1CCC(c2ccc(-c3ccc(-c4nc5nc(O[C@@H]6CO[C@H]7[C@@H]6OC[C@H]7O)[nH]c5cc4Cl)cc3)cc2)=N1` (stereo partly drawn) [Example 125], in assay [1], the Emax turned out to be 350% and the EC50 was found to be 6 nM.

On to `O=c1[nH]ccn1-c1ccc(-c2ccc(-c3nc4nc(O[C@@H]5CO[C@H]6[C@@H]5OC[C@H]6O)[nH]c4cc3Cl)cc2)cc1` [Example 73], for which, in assay [1], the Emax was 357% and the EC50 worked out at 4 nM.

As for `Cn1c(-c2ccc(-c3ccc(-c4nc5nc(O[C@@H]6CO[C@H]7[C@@H]6OC[C@H]7O)[nH]c5cc4Cl)cc3)cc2)cnc1N` [Example 127], in assay [1], the Emax was 281% and the EC50 came out at 4 nM.

Regarding `O=C(O)CCCc1ccc(-c2ccc(-c3nc4nc(O[C@@H]5CO[C@H]6[C@@H]5OC[C@H]6O)[nH]c4cc3Cl)cc2)cc1` [Example 86], in assay [1], the Emax was found to be 314% and the EC50 stood at 4 nM.

Take `CCN(CC)c1ccc(-c2ccc(-c3nc4nc(O[C@@H]5CO[C@H]6[C@@H]5OC[C@H]6O)[nH]c4cc3Cl)cc2)cc1` [Example 105]: in assay [1], the Emax was 268% and the concentration for a half-maximal effect (EC50) was 5 nM.

In the case of `O[C@@H]1CO[C@H]2[C@@H]1OC[C@H]2Oc1nc2nc(-c3ccc(-c4ccc(C5Cc6nccn6C5)cc4)cc3)c(Cl)cc2[nH]1` (stereo partly drawn) [Example 126], in assay [1], the maximum response (Emax) was 303% and the EC50 was 3 nM.

Consider `CC1(c2ccc(-c3ccc(-c4nc5nc(O[C@@H]6CO[C@H]7[C@@H]6OC[C@H]7O)[nH]c5cc4Cl)cc3)cc2)COC1` [Example 145], for which, in assay [1], the Emax was determined as 348% and the EC50 is 8 nM.

For the molecule `NC(=O)c1ncn([C@@H]2O[C@H](CO)[C@@H](O)[C@H]2O)c1N` [AICAR], in assay [2], the blood glucose reduction is reported as 35%.

Consider `O[C@@H]1CO[C@H]2[C@@H]1OC[C@H]2Oc1nc2nc(-c3ccc(-c4ccc(C5CNCCO5)cc4)cc3)c(Cl)cc2[nH]1` (stereo partly drawn) [Example 133], for which, in assay [1], the Emax turned out to be 359% and the concentration giving a half-maximal response (EC50) is 1 nM.

In the case of `Cc1cc(-c2ccc(-c3ccc(-c4nc5nc(O[C@@H]6CO[C@H]7[C@@H]6OC[C@H]7O)[nH]c5cc4Cl)cc3)cc2)c(=O)[nH]n1` [Example 131], in assay [1], the Emax came out at 289% and the EC50 was found to be 3 nM.

`CC(CO)(CO)c1ccc(-c2ccc(-c3nc4nc(O[C@@H]5CO[C@H]6[C@@H]5OC[C@H]6O)[nH]c4cc3Cl)cc2)cc1` [Example 79]: in assay [1], the Emax turned out to be 337% and the EC50 was 2 nM.

Turning to `CC(C)(O)CN1Cc2cn(-c3ccc(-c4nc5nc(O[C@@H]6CO[C@H]7[C@@H]6OC[C@H]7O)[nH]c5cc4Cl)cc3)nc2C1` [Example 14, (3R,3aR,6R,6aR)-6-[[6-chloro-5-[4-[5-(2-hydroxy-2-methyl-propyl)-5,6-dihydro-4H-pyrrolo[3,4-c]pyrazol-5-ium-2-yl]phenyl]-1H-imidazo[4,5-b]pyridin-2-yl]oxy]-2,3,3a,5,6,6a-hexahydrofuro[3,2-b]furan-3-ol; 2,2,2-trifluoroacetate], in assay [1], the Emax amounted to 276% and the EC50 is 29 nM.

`CN(C)CCOc1ccc(-c2ccc(-c3nc4nc(O[C@@H]5CO[C@H]6[C@@H]5OC[C@H]6O)[nH]c4cc3Cl)cc2)cc1` [Example 151]: in assay [1], the Emax was found to be 323% and the EC50 was 2 nM.

Take `Cc1nnc(-c2ccc(-c3ccc(-c4nc5nc(O[C@@H]6CO[C@H]7[C@@H]6OC[C@H]7O)[nH]c5cc4Cl)cc3)cc2)o1` [Example 87]: in assay [1], the Emax came out at 285% and the EC50 stood at 3 nM.

With `Oc1ccnc(-c2ccc(-c3ccc(-c4nc5nc(O[C@@H]6CO[C@H]7[C@@H]6OC[C@H]7O)[nH]c5cc4Cl)cc3)cc2)n1` [Example 130], in assay [1], the Emax stood at 291% and the EC50 came to 2 nM.

Consider `N#Cc1ccc(-c2ccc(-c3nc4nc(O[C@@H]5CO[C@H]6[C@@H]5OC[C@H]6O)[nH]c4cc3Cl)cc2)c(F)c1` [Example 102], for which, in assay [1], the Emax stood at 304% and the EC50 is 5 nM.

For the molecule `O=c1[nH]c(-c2ccc(-c3ccc(-c4nc5nc(O[C@@H]6CO[C@H]7[C@@H]6OC[C@H]7O)[nH]c5cc4Cl)cc3)cc2)no1` [Example 138], in assay [1], the Emax is 333% and the EC50 was 4 nM.

Consider `O=c1ncn(-c2ccc(-c3ccc(-c4nc5nc(O[C@@H]6CO[C@H]7[C@@H]6OC[C@H]7O)[nH]c5cc4Cl)cc3)cc2)[nH]1` [Example 129], for which, in assay [1], the maximum response (Emax) is 305% and the half-maximal effective concentration (EC50) stood at 1 nM.

For `O[C@@H]1CO[C@H]2[C@@H]1OC[C@H]2Oc1nc2nc(-c3ccc(-c4ccc(Cn5ncnn5)cc4)cc3)c(Cl)cc2[nH]1` [Example 142], in assay [1], the Emax is 337% and the EC50 worked out at 2 nM.

In the case of `O[C@@H]1CO[C@H]2[C@@H]1OC[C@H]2Oc1nc2nc(-c3ccc(-c4ccc(Cn5ccnc5)cc4)cc3)c(Cl)cc2[nH]1` [Example 147], in assay [1], the maximum response (Emax) came out at 348% and the EC50 came to 4 nM.
